We go through 27 compounds from patent publication US9169254B2, “Spiroimidazolone derivative” (Chugai Seiyaku Kabushiki Kaisha, priority 2009, dated 2015).

Molecules are shown by their SMILES.

This experiment deals with T1, human PTH1 receptor (Homo sapiens, UniProt Q03431).
T1 sequence (Q03431 27-593): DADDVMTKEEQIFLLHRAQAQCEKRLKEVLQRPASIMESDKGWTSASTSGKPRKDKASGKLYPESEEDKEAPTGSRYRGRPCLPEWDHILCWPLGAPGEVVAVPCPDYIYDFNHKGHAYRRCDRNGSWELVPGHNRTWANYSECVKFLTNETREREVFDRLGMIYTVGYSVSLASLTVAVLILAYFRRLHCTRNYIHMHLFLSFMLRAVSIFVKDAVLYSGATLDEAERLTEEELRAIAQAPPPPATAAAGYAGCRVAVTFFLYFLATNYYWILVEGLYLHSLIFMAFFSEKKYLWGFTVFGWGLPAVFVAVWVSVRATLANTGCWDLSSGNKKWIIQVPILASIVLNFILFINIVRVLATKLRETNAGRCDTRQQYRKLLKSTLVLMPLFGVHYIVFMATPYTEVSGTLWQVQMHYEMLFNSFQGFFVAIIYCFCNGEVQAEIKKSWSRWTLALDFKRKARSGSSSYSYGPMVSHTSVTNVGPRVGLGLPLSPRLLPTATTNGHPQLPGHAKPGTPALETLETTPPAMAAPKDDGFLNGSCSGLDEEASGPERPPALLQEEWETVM
The experiment can be described thus: In vitro cAMP signal activity in HKRK-B7 cells (LLC-PK1 cells overexpressing the human PTH1 receptor). Type of experiment: cell-based. The following applies: HKRK-B7 cells; compound at 1×10^−3 M; cAMP produced as percentage of that produced by hPTH(1-34) at 100 nM.
With `Cc1cc(C(=O)N(C)C)ccc1CCS(=O)(=O)N1CCC2(CC1)N=C(c1cccc(-c3ccccc3)c1)NC2=O` [Compound 172, 4-[2-(2-biphenyl-3-yl-4-oxo-1,3,8-triaza-spiro[4.5]dec-1-ene-8-sulfonyl)-ethyl]-3,N,N-trimethyl-benzamide], the “cAMP production activity (%)” value is listed as 102%. As for `Cc1cc(C(=O)N(C)C)ccc1CCS(=O)(=O)N1CCC2(CC1)N=C(c1cccc(-c3cccnc3)c1)NC2=O` [Compound 173, 3,N,N-trimethyl-4-{2-[4-oxo-2-(3-pyridin-3-yl-phenyl)-1,3,8-triaza-spiro[4.5]dec-1-ene-8-sulfonyl]-ethyl}-benzamide], the “cAMP production activity (%)” value is reported as 71%. For the compound `COC(=O)c1cccc(C2=NC3(CCN(S(=O)(=O)CCc4ccc(C(=O)N(C)C)cc4C)CC3)C(=O)N2)c1` [Compound 174, 3-{8-[2-(4-Dimethylcarbamoyl-2-methyl-phenyl)-ethanesulfonyl]-4-oxo-1,3,8-triaza-spiro[4.5]dec-1-en-2-yl}-benzoic acid methyl ester], the “cAMP production activity (%)” value was 68%. In the case of `Cc1cc(C(=O)N(C)C)ccc1CCS(=O)(=O)N1CCC2(CC1)N=C(C(C)(C)Oc1ccc(Cl)cc1Cl)NC2=O` [Compound 175, 4-(2-{2-[1-(2,4-Dichloro-phenoxy)-1-methyl-ethyl]-4-oxo-1,3,8-triaza-spiro[4.5]dec-1-ene-8-sulfonyl}-ethyl)-3,N,N-trimethyl-benzamide], the “cAMP production activity (%)” value came out at 73%.

In the case of `Cc1cc(C(=O)N(C)C)ccc1CCS(=O)(=O)N1CCC2(CC1)N=C(COc1ccc(F)c(F)c1F)NC2=O` [Compound 176, 3,N,N-trimethyl-4-{2-[4-oxo-2-(2,3,4-trifluoro-phenoxymethyl)-1,3,8-triaza-spiro[4.5]dec-1-ene-8-sulfonyl]-ethyl}-benzamide], the “cAMP production activity (%)” value was 74%. Consider `CCc1cccc(NS(=O)(=O)N2CCC3(CC2)N=C(C2CCCCC2)NC3=O)c1` [Compound 177, 2-Cyclohexyl-4-oxo-1,3,8-triaza-spiro[4.5]dec-1-ene-8-sulfonic (3-ethylphenyl)amide], for which the “cAMP production activity (%)” value is recorded as 28%. For `O=C1NC(C2CCCCC2)=NC12CCN(S(=O)(=O)/C=C/c1ccc3[nH]ccc3c1)CC2` [Compound 178, 2-Cyclohexyl-8-[(E)-2-(1H-indol-5-yl)-ethenesulfonyl]-1,3,8-triaza-spiro[4.5]dec-1-en-4-one], the “cAMP production activity (%)” value was determined as 29%. On to `O=C1NC(C2CCCCC2)=NC12CCN(S(=O)(=O)/C=C/c1ccccc1C(F)(F)F)CC2` [Compound 179, 2-cyclohexyl-8-[(E)-2-(2-trifluoromethyl-phenyl)-ethenesulfonyl]-1,3,8-triaza-spiro[4.5]dec-1-en-4-one], for which the “cAMP production activity (%)” value is on record as 49%.

For `COc1cccc(/C=C/S(=O)(=O)N2CCC3(CC2)N=C(C2CCCCC2)NC3=O)c1` [Compound 180, 2-cyclohexyl-8-[(E)-2-(3-methoxy-phenyl)-ethenesulfonyl]-1,3,8-triaza-spiro[4.5]dec-1-en-4-one], the “cAMP production activity (%)” value is 60%. As to `COc1ccccc1/C=C/S(=O)(=O)N1CCC2(CC1)N=C(C1CCCCC1)NC2=O` [Compound 181, 2-cyclohexyl-8-[(E)-2-(2-methoxy-phenyl)-ethenesulfonyl]-1,3,8-triaza-spiro[4.5]dec-1-en-4-one], the “cAMP production activity (%)” value came out at 19%.

As for `O=C1NC(C2CCCCC2)=NC12CCN(S(=O)(=O)/C=C/c1cccc3[nH]ccc13)CC2` [Compound 182, 2-cyclohexyl-8-[(E)-2-(1H-indol-4-yl)-ethenesulfonyl]-1,3,8-triaza-spiro[4.5]dec-1-en-4-one], the “cAMP production activity (%)” value was determined as 38%. With `O=C1NC(C2CCCCC2)=NC12CCN(S(=O)(=O)/C=C/c1c(F)cccc1C(F)(F)F)CC2` [Compound 183, 2-cyclohexyl-8-[(E)-2-(2-fluoro-6-trifluoromethyl-phenyl)-ethenesulfonyl]-1,3,8-triaza-spiro[4.5]dec-1-en-4-one] the figure was 68%; with `O=C1NC(C2CCCCC2)=NC12CCN(S(=O)(=O)/C=C/c1cccc(F)c1F)CC2` [Compound 184, 2-cyclohexyl-8-[(E)-2-(2,3-difluoro-phenyl)-ethenesulfonyl]-1,3,8-triaza-spiro[4.5]dec-1-en-4-one], 37%; with `O=C1NC(C2CCCCC2)=NC12CCN(S(=O)(=O)/C=C/c1cccc(F)c1C(F)(F)F)CC2` [Compound 185, 2-cyclohexyl-8-[(E)-2-(3-fluoro-2-trifluoromethyl-phenyl)-ethenesulfonyl]-1,3,8-triaza-spiro[4.5]dec-1-en-4-one], 33%. The same measure for `Cc1ccccc1/C=C/S(=O)(=O)N1CCC2(CC1)N=C(C1CCCCC1)NC2=O` [Compound 186, 2-cyclohexyl-8-((E)-2-o-tolyl-ethenesulfonyl)-1,3,8-triaza-spiro[4.5]dec-1-en-4-one]: 51%; for `O=C1NC(C2CCCCC2)=NC12CCN(S(=O)(=O)/C=C/c1ccc(CCO)cc1)CC2` [Compound 187, 2-cyclohexyl-8-{(E)-2-[4-(2-hydroxy-ethyl)-phenyl]-ethenesulfonyl}-1,3,8-triaza-spiro[4.5]dec-1-en-4-one]: 12%; for `O=C1NC(C2CCCCC2)=NC12CCN(S(=O)(=O)/C=C/c1cccc3[nH]c(=O)oc13)CC2` [Compound 188, 2-cyclohexyl-8-[(E)-2-(2-oxo-2,3-dihydro-benzoxazol-7-yl)-ethenesulfonyl]-1,3,8-triaza-spiro[4.5]dec-1-en-4-one]: 70%. The same measure for `CN(C)C(=O)n1ccc2c(/C=C/S(=O)(=O)N3CCC4(CC3)N=C(C3CCCCC3)NC4=O)cccc21` [Compound 189, 4-[(E)-2-(2-cyclohexyl-4-oxo-1,3,8-triaza-spiro[4.5]dec-1-ene-8-sulfonyl)-vinyl]-indole-1-carboxylic acid dimethylamide]: 54%; for `CC(=O)Nc1cccc(C)c1/C=C/S(=O)(=O)N1CCC2(CC1)N=C(C1CCCCC1)NC2=O` [Compound 190, N-{2-[(E)-2-(2-cyclohexyl-4-oxo-1,3,8-triaza-spiro[4.5]dec-1-ene-8-sulfonyl)-vinyl]-3-methyl-phenyl}-acetamide]: 61%.

For `O=C1NC(C2CCCCC2)=NC12CCN(S(=O)(=O)/C=C/c1cccc3c1ccn3C[C@H](O)CO)CC2` [Compound 191, 2-cyclohexyl-8-{(E)-2-[1-((S)-2,3-dihydroxy-propyl)-1H-indol-4-yl]-ethenesulfonyl}-1,3,8-triaza-spiro[4.5]dec-1-en-4-one], the “cAMP production activity (%)” value is 57%. On to `O=C1NC(C2CCCCC2)=NC12CCN(S(=O)(=O)/C=C/c1cccc3c1ccn3CCN1CCOCC1)CC2` [Compound 192, 2-cyclohexyl-8-{(E)-2-[1-(2-morpholin-4-yl-ethyl)-1H-indol-4-yl]-ethenesulfonyl}-1,3,8-triaza-spiro[4.5]dec-1-en-4-one], for which the “cAMP production activity (%)” value is given as 52%.

Turning to `CN(C)C(=O)Cn1ccc2c(/C=C/S(=O)(=O)N3CCC4(CC3)N=C(C3CCCCC3)NC4=O)cccc21` [Compound 193, 2-{4-[(E)-2-(2-cyclohexyl-4-oxo-1,3,8-triaza-spiro[4.5]dec-1-ene-8-sulfonyl)-vinyl]-indol-1-yl}-N,N-dimethyl-acetamide], the “cAMP production activity (%)” value stood at 65%. Regarding `CN(C)C(=O)Nc1ccc(/C=C/S(=O)(=O)N2CCC3(CC2)N=C(C2CCCCC2)NC3=O)c(C(F)(F)F)c1` [Compound 194, 3-{4-[(E)-2-(2-cyclohexyl-4-oxo-1,3,8-triaza-spiro[4.5]dec-1-ene-8-sulfonyl)-vinyl]-3-trifluoromethyl-phenyl}-1,1-dimethyl-urea], the “cAMP production activity (%)” value came out at 56%. With `O=C(Nc1ccc(/C=C/S(=O)(=O)N2CCC3(CC2)N=C(C2CCCCC2)NC3=O)c(C(F)(F)F)c1)C1CC1` [Compound 195, cyclopropanecarboxylic acid {4-[(E)-2-(2-cyclohexyl-4-oxo-1,3,8-triaza-spiro[4.5]dec-1-ene-8-sulfonyl)-vinyl]-3-trifluoromethyl-phenyl}-amide], the “cAMP production activity (%)” value was 36%. As to `O=C(CO)Nc1ccc(/C=C/S(=O)(=O)N2CCC3(CC2)N=C(C2CCCCC2)NC3=O)c(C(F)(F)F)c1` [Compound 196, N-{4-[(E)-2-(2-cyclohexyl-4-oxo-1,3,8-triaza-spiro[4.5]dec-1-ene-8-sulfonyl)-vinyl]-3-trifluoromethyl-phenyl}-2-hydroxy-acetamide], the “cAMP production activity (%)” value was determined as 66%. On to `COC(=O)Nc1ccc(C)c(/C=C/S(=O)(=O)N2CCC3(CC2)N=C(C2CCCCC2)NC3=O)c1` [Compound 197, {3-[(E)-2-(2-cyclohexyl-4-oxo-1,3,8-triaza-spiro[4.5]dec-1-ene-8-sulfonyl)-vinyl]-4-methyl-phenyl}-carbamic acid methyl ester], for which the “cAMP production activity (%)” value came to 41%. Regarding `O=C(NCCO)Nc1ccc(/C=C/S(=O)(=O)N2CCC3(CC2)N=C(C2CCCCC2)NC3=O)c(C(F)(F)F)c1` [Compound 198, 1-{4-[(E)-2-(2-cyclohexyl-4-oxo-1,3,8-triaza-spiro[4.5]dec-1-ene-8-sulfonyl)-vinyl]-3-trifluoromethyl-phenyl}-3-(2-hydroxy-ethyl)-urea], the “cAMP production activity (%)” value was 31%.
